Reference: patent publication US20210040116A1, “New Polymorphs of Dolutegravir Sodium” (CIPLA LIMITED, priority 2017, published 2021)

Columns and labels:
[1] = Bulk density and tapped density (USP <616> method I); type: physicochemical
Description: Suitable methods for determining the bulk density and tapped density of the crystalline form 1A of dolutegravir sodium of the present invention and the crystalline form of dolutegravir sodium form disclosed in WO2010068253 will be well known to the skilled chemist. For example, USP <616> method I may be used.

[2] = Comparative intrinsic dissolution; type: physicochemical; conditions: 0.01M pH 6.8 phosphate buffer containing 0.25% w/v SDS, 37° C., 50 rpm
Description: The following data illustrates the dissolution of the crystalline form of dolutegravir sodium disclosed in WO2010068253 (i.e. not the hydrate), compared to crystalline Form 1A of the present invention (i.e. crystalline Form 1A of dolutegravir sodium).
Dissolution medium: 0.01M pH 6.8 phosphate buffer containing 0.25% w/v sodium dodecyl sulfate (SDS)
FIG. 5 is a graphical comparison of the intrinsic dissolution of the solid crystalline Form 1A of dolutegravir sodium of the present invention and the crystalline form of dolutegravir sodium disclosed in WO2010068253. The solid line represents the dissolution of solid crystalline Form 1A of dolutegravir sodium of the present invention, with the dotted line representing the dissolution of the crystalline form of dolutegravir sodium disclosed in WO2010068253.

| tapped density [1] | % Release ([2]; 5 minutes) | % Release ([2]; 15 minutes) | % Release ([2]; 30 minutes) | % Release ([2]; 60 minutes) | % Release ([2]; 120 minutes) | % Release ([2]; 240 minutes) | % Release ([2]; 360 minutes) | % Release ([2]; 480 minutes) | % Release ([2]; 600 minutes) | % Release ([2]; 720 minutes) | bulk density [1] | Structure (SMILES) |
| --- | --- | --- | --- | --- | --- | --- | --- | --- | --- | --- | --- | --- |
| 0.7 to 0.8 g/mL | 26% | 45% | 73% | 66% | 79% | 82% | 81% | 85% | 86% | 82% | – | C[C@@H]1CCO[C@H]2Cn3cc(C(=O)NCc4ccc(F)cc4F)c(=O)c([O-])c3C(=O)N12.[Na+] [Form 1A, sodium (4R,12aS)-9-{[(2,4,-difluorophenyl)methyl]carbamoyl}-4-methyl-6,8-dioxo-3,4,6,8,12,12a-hexahydro-2H-pyrido[1′,2′:4,5]pyrazino[2,1-b][1,3]oxazin-7-olate] |
| – | 5% | 13% | 20% | 56% | 68% | 74% | 72% | 73% | 73% | 74% | 0.2 to 0.3 g/mL | C[C@@H]1CCO[C@H]2Cn3cc(C(=O)NCc4ccc(F)cc4F)c(=O)c([O-])c3C(=O)N12.[Na+] [crystalline form of dolutegravir sodium disclosed in WO20100] [sodium (4R,12aS)-9-{[(2,4,-difluorophenyl)methyl]carbamoyl}-4-methyl-6,8-dioxo-3,4,6,8,12,12a-hexahydro-2H-pyrido[1′,2′:4,5]pyrazino[2,1-b][1,3]oxazin-7-olate] |
